This is an account of results in patent publication US20220211861A1, “DRUG CONJUGATES AND METHODS OF USING SAME” (The Board of Trustees of the Leland Staford Junior …, priority 2019, published 2022).

Experiment [1] concerns U87MG cells. The experiment is described as follows: Indirect (competition) binding assay displacing Alexa Fluor 488-labeled knottin. The settings on record: competing off 1 nM AF488-2.5F on U87MG cells. As for the experimental part: The binding affinity of the constructs described in Example 1 were measured using U87MG glioblastoma cells. Drug-free protein affinities were measured directly using Alexa Fluor 488-conjugaed proteins and drug conjugates were measured via a competition binding assay displacing Alexa Fluor 488-labeled K. All constructs tested bound to U87MG cells with low-nanomolar affinity (FIG. 9A-B).
U87MG cells were detached using Enzyme-Free Cell Dissociation Buffer (Gibco). Next, 4×10^4 cells were incubated with 1 nM of Alexa Fluor 488 labeled knottin as a competitor and varying concentrations (0.01-500 nM) of KDC, KFDC, or KADC in IBB for 3 h at 4° C. to minimize internalization. Cells were pelleted and washed twice with 800 μL of PBSA (phosphate buffered saline containing 0.1% bovine serum albumin) and the fluorescence of remaining surface-bound protein was measured by flow cytometry using a Guava EasyCyte 8HT instrument (EMD Millipore). Resulting data were evaluated using FlowJo software (TreeStar Inc) and equilibrium dissociation constants (Kd) were determined using Prism software (GraphPad). Error bars represent the standard deviation of experiments performed in triplicate.

For experiment [2], the system named is U87MG hip xenografts. Nature of the experiment: Pilot therapeutic efficacy study, dosing 3 times per week for 3 weeks. It counts as in vivo, Nu/Nu mice. As for the experimental part:
Using this treatment regimen as a starting point, a preliminary study was set up using 5 mice per treatment group. Mice were inoculated with 5×10^6 U87MG cells in the right flank and tumors were allowed to grow and establish until reaching an approximate area of 30 mm^2. Mice were then randomized into 1 of 4 treatment groups: PBS, KDC, KFDC, or KADC. To keep groups equivalent and provide the highest chance of efficacy for KDC despite its short circulatory half-life, all drug conjugate groups dosed 3 times per week for 3 weeks. Each dose contained the appropriate drug conjugate normalized to 2.38 nmol MMAE (˜0.6 mg/kg KDC, ˜5 mg/kg KFDC, ˜10 mg/kg KADC).

For experiment [3], the system named is U87MG hip xenografts. The experiment is described as follows: Therapeutic efficacy study, once weekly for four weeks, tumors implanted with Matrigel. It counts as in vivo, Nu/Nu mice. As for the experimental part: To further investigate each compound, several changes were made to the experimental design. Because of the KDC's rapid systemic clearance, a significant portion of the injected dose is likely lost and the ˜0.6 mg/kg dose was therefore increased substantially. Because dosages for chemotherapeutics are conventionally determined as mass of chemotherapeutic per patient body surface area, a more clinically relevant comparison of equal mass was selected over an equimolar comparison. Next, a once-per-week dosing regimen was selected to coincide with realistic clinical dosing considerations. Finally, tumors were implanted with Matrigel matrix to increase tumor growth and with only 2.5×10^6 cells per injection to decrease initial tumor necrosis. Mice bearing U87MG hip xenografts were equally distributed into the following treatment groups with intravenous injections given once weekly for 4 weeks: KDC, KFDC, KADC, unconjugated proteins, or a PBS control. Each drug conjugate was also evaluated at a low dose and a high dose.
For tumor cell implantation, female Nu/Nu mice (Charles River Laboratory) were anesthetized with 2.5% isoflurane by inhalation with a flow rate of 1 L/min. A volume of 200 μL of 50/50 PBS/Matrigel (Corning), containing 2.5×10^6 U87MG cells, was injected subcutaneously into the right flank. Tumors were allowed to grow for 7 days until reaching a size of approximately 35 mm^2. For therapeutic efficacy studies, mice were binned into experimental groups to ensure equivalent average tumor sizes and starting body weights across all groups.
Mice bearing U87MG flank xenografts, as described above, were injected intravenously with PBS, KDC, KFDC, KADC, or controls proteins. Treatments were administered once per week for four weeks. Tumors were measured three times per week using digital calipers and animal weights were recorded on each dosing day to monitor for potential weight loss as a measure of compound toxicity. Tumor area was calculated as the longest axis of the tumor multiplied by the perpendicular axis. Euthanasia criteria were defined as a tumor area greater than 150 mm^2 or a loss of 20% body weight.

In experiment [4] the test system is U87MG tumor spheroids. Nature of the experiment: Endpoint spheroid killing assay (SYTOX green, plate reader). It counts as cell-based. The settings on record: 100 nM. As for the experimental part:
(§1) Next, this in vitro model was modified to test if similar cell killing could be visualized in addition to confocal imaging experiments. Spheroids were treated with drug conjugates or MMAE at a range of concentrations. After incubating with drug conjugates for 5 d, media was replaced with fresh media containing SYTOX green. Fluorescence measured by a BioTek Synergy H4 microtiter plate reader was compared to spheroids treated with lysis buffer. […] To visualize this killing over time, spheroids treated with 50 or 100 nM of drug conjugates or MMAE were imaged every 4 h using an IncuCyte.
Spheroids of U87MG cells were formed by seeding round-bottom, 96-well ultra-low adhesion plates (Corning) with 4×10^3 cells/well and centrifuging at 1000×g for 10 minutes. Spheroids were grown for 2 days before replacing media with 200 μL of fresh media containing 10 nM Cytox Green (ThermoFisher) and a range of concentrations of KDC, KFDC, KADC, or MMAE. After 4 d, trypsin-EDTA was added and cells were placed on a 60 RPM shaker for 10 min to disrupt spheroids. Green fluorescence was measured using was measured with a BioTek Synergy H4 microtiter plate reader. Percent toxicity was calculated by comparing green fluorescence to spheroids treated with lysis buffer.

Experiment [5] deals with RFP-expressing U87MG tumor spheroids. Nature of the experiment: Cell spheroid killing assay over time (IncuCyte). The experiment is classed as cell-based. The procedure:
as §1
Spheroids of RFP-expressing U87MG cells were formed by seeding round-bottom, 96-well ultra-low adhesion plates (Corning) with 4×10^3 cells/well and centrifuging at 1000×g for 10 minutes. Spheroids were grown for 2 days before replacing media with 200 μL of fresh media containing 10 nM Cytox Green (ThermoFisher) and 0, 50, or 100 nM KDC, KFDC, KADC, or MMAE. Spheroids were incubated in an IncuCyte S3 Live-Cell Analysis System for 5 d with images collected every 4 h.

[6] abbreviates: 1 mg/kg once weekly for 4 weeks.
[7] abbreviates: 5 mg/kg once weekly for 4 weeks.

Structures are written as SMILES. *1 amine or outer side, *2 acyl side, *3 side chain or, on linkers, in order; H or OH if unused. Where a SMILES comes first, the peptide text is derived from it. Bridges are numbered along the chain shown (N, C = ends). Roman numbers before positions name the chains, in order. [ ]: non-standard residue; d: D form. The star is where a group is joined. X1 = O=C([C@H](CCCn1nnc2c1-c1ccccc1CN([*:3])c1ccccc1-2)N[*:1])[*:2]; Dolaproine = CO[C@@H]([C@@H]1CCCN1)[C@@H](C)C(=O)O; X3 = O=C(CCC(=O)[*:1])NCCOCCOCCOCCC(=O)[*:2]; Dil = CC[C@H](C)[C@H](NC)[C@@H](CC(=O)O)OC; PABC = O=C(OCc1ccc(N[*:1])cc1)[*:2]; X2 = C[C@@H](N*)[C@@H](O)c1ccccc1; Cit = NC(=O)NCCC[C@H](N)C(=O)O; NMeV = CN[C@H](C(=O)O)C(C)C

As usually defined, the Ki is a measure of affinity in units of concentration, obtained from inhibition or displacement. With `CC[C@H](C)[C@@H]([C@@H](CC(=O)N1CCC[C@H]1[C@H](OC)[C@@H](C)C(=O)N[C@H](C)[C@@H](O)c1ccccc1)OC)N(C)C(=O)[C@@H](NC(=O)[C@H](C(C)C)N(C)C(=O)OCc1ccc(NC(=O)[C@H](CCCNC(N)=O)NC(=O)[C@@H](NC(=O)CCOCCOCCOCCNC(=O)CCC(=O)N2Cc3ccccc3-c3c(nnn3CCC[C@@H]3NC(=O)[C@@H]4CSSC[C@@H]5NC(=O)[C@H](C(C)C)NC(=O)[C@H](CSSC[C@H](NC(=O)CN)C(=O)N6CCC[C@H]6C(=O)N[C@@H](CCCNC(=N)N)C(=O)N6CCC[C@H]6C(=O)N[C@@H](CCCNC(=N)N)C(=O)NCC(=O)N[C@@H](CC(=O)O)C(=O)N[C@@H](CC(N)=O)C(=O)N6CCC[C@H]6C(=O)N6CCC[C@H]6C(=O)N[C@@H](CC(C)C)C(=O)N[C@@H]([C@@H](C)O)C(=O)N4)NC(=O)CNC(=O)[C@H](C)NC(=O)[C@H](CC(C)C)NC(=O)[C@H](CSSC[C@@H](C(=O)NCC(N)=O)NC(=O)[C@H](Cc4ccc(O)cc4)NC(=O)CNC(=O)[C@H](CC(N)=O)NC(=O)[C@@H]4CCCN4C(=O)CNC5=O)NC(=O)[C@H](CC(=O)O)NC(=O)[C@H](CO)NC(=O)[C@H](CC(=O)O)NC(=O)[C@H](CCC(N)=O)NC3=O)-c3ccccc32)C(C)C)cc1)C(C)C` [KDC] (I: H-GCPRPRGDNPPLTC[X1]QDSDCLAGCVCGPNGYCG-NH2 / II: V[Cit][PABC][NMeV]V[Dil][Dolaproine]-X2; disulfide I:2-I:24, I:14-I:26, I:20-I:32; linker I:15-II:N via X3; N-terminus assumed), in experiment [1], affinity was put at a Ki of 0.9 nM. Also, the cytostatic effect maintained in experiment [2] (dose normalized to 2.38 nmol MMAE (0.6 mg/kg KDC)) was 4 of 5. Further, in experiment [2] (dose normalized to 2.38 nmol MMAE, 5 mice per group), the complete tumor regression was 1 of 5. In addition, in experiment [3] (setting [6]), the “tumor growth” value is recorded as “significantly delayed tumor growth but did not cause tumor regression” and the “tumors regrew after the end of treatment” value is on record as 5 of 5. Besides, in experiment [3] (setting [7]), the “efficacy” value is listed as “very effective” and the tumor regression is listed as 4 of 5. In addition, the “comparison by mass of drug conjugate per kg mouse body weight” value in experiment [3] (once weekly for 4 weeks) was “significantly outperformed both KFDC and KADC”. Also, the spheroid killing result in experiment [4] is listed as “substantially more killing than KFDC, KADC, or MMAE”. Also, the spheroid toxicity in experiment [5] (50 or 100 nM, imaged every 4 h) is given as roughly 100%. In experiment [5] (drug conjugate plus unconjugated knottin), the “potency when co-administered with unconjugated knottin” value is on record as “equivalently effective with or without addition of unconjugated knottin”.
